The source made the active and inactive calls. The rule behind the calls is not given here.
Tests used:
Staphylococcus aureus [1] = test: Antibacterial activity against Staphylococcus aureus SA 22 at 100 ug/ml after 24 hr by filter paper disk method; format: functional; conditions: for zone of inhibition at 100 µg/mL: SA 22, 24 h, read-out: DIZ
Aspergillus fumigatus [2] = test: Antifungal activity against Aspergillus fumigatus at 100 ug/ml after 72 hr; format: functional; conditions: for zone of inhibition at 100 µg/mL: read-out: DIZ
Escherichia coli [3] = test: Antibacterial activity against Escherichia coli K-12 at 100 ug/ml after 24 hr by filter paper disk method; format: functional; conditions: for zone of inhibition at 100 µg/mL: K-12, 24 h, read-out: DIZ
Candida albicans = test: Antifungal activity against Candida albicans IOA-109 at 100 ug/ml after 18 to 48 hr; format: functional; conditions: for zone of inhibition at 100 µg/mL: read-out: DIZ
Salmonella typhimurium [4] = test: Antibacterial activity against Salmonella enterica subsp. enterica serovar Typhimurium MTCC 98 at 100 ug/ml after 24 hr by filter paper disk method; format: functional; conditions: for zone of inhibition at 100 µg/mL: MTCC 98, 24 h, read-out: DIZ
Bacillus subtilis [5] = test: Antibacterial activity against Bacillus subtilis MTCC 121 at 100 ug/ml after 24 hr by filter paper disk method; format: functional; conditions: for zone of inhibition at 100 µg/mL: MTCC 121, 24 h, read-out: DIZ
Aspergillus niger [6] = test: Antifungal activity against Aspergillus niger at 100 ug/ml after 72 hr; format: functional; conditions: for zone of inhibition at 100 µg/mL: read-out: DIZ
Aspergillus fumigatus [7] = test: Antifungal activity against Aspergillus fumigatus at 30 ug/disk after 72 hr; format: functional, organism-based
Aspergillus niger [8] = test: Antifungal activity against Aspergillus niger at 30 ug/disk after 72 hr; format: functional, organism-based
Bacillus subtilis [9] = test: Antibacterial activity against Bacillus subtilis MTCC 121 at 30 ug/disk after 24 hr by filter paper disk method; format: functional; conditions: MTCC 121, 24 h, read-out: DIZ
Escherichia coli [10] = test: Antibacterial activity against Escherichia coli K-12 at 30 ug/disc after 24 hr by filter paper disk method; format: functional; conditions: K-12, 24 h, read-out: DIZ
Salmonella typhimurium [11] = test: Antibacterial activity against Salmonella enterica subsp. enterica serovar Typhimurium MTCC 98 at 30 ug/disc after 24 hr by filter paper disk method; format: functional; conditions: MTCC 98, 24 h, read-out: DIZ
Staphylococcus aureus [12] = test: Antibacterial activity against Staphylococcus aureus SA 22 at 30 ug/disc after 24 hr by filter paper disk method; format: functional; conditions: SA 22, 24 h, read-out: DIZ

Compound	zone of inhibition at 100 µg/mL (Staphylococcus aureus [1]) [mm]	diameter of the inhibition zone (DIZ) (Aspergillus fumigatus [2])	zone of inhibition at 100 µg/mL (Escherichia coli [3]) [mm]	zone of inhibition at 100 µg/mL (Salmonella typhimurium [4]) [mm]	zone of inhibition at 100 µg/mL (Bacillus subtilis [5]) [mm]	diameter of the inhibition zone (DIZ) (Aspergillus niger [6])	zone of inhibition at 100 µg/mL (Candida albicans) [mm]	diameter of the inhibition zone (DIZ) (Bacillus subtilis [5])	zone of inhibition at 100 µg/mL (Aspergillus fumigatus [2]) [mm]	zone of inhibition at 100 µg/mL (Aspergillus niger [6]) [mm]	further results
CN1C(=O)C(c2cc(-c3coc4ccccc4c3=O)[nH]n2)C(=O)N(C)C1=O	14	inactive	12	12	12	inactive	–	–	–	–	diameter of the inhibition zone (DIZ) (Candida albicans): inactive
Cc1ccc2occ(C(Br)C(Br)C(=O)C3C(=O)N(C)C(=O)N(C)C3=O)c(=O)c2c1 (stereo not given)	12	inactive	15	10	–	inactive	17	inactive	–	–	–
NYSTATIN	–	–	–	–	–	–	–	inactive	–	–	diameter of the inhibition zone (DIZ) (Staphylococcus aureus [1]): inactive; diameter of the inhibition zone (DIZ) (Escherichia coli [3]): inactive; inhibition zone (IZ) (Aspergillus fumigatus [7]): 18 mm; diameter of the inhibition zone (DIZ) (Salmonella typhimurium [4]): inactive; inhibition zone (IZ) (Aspergillus niger [8]): 18 mm
CN1C(=O)C(C(=O)/C=C/c2coc3ccccc3c2=O)C(=O)N(C)C1=O	15	–	20	16	20	–	16	–	10	8	–
CN1C(=O)C(C2=NN(c3ccccc3)C(c3coc4ccccc4c3=O)C2)C(=O)N(C)C1=O (stereo not given)	–	–	8	12	–	inactive	15	inactive	12	–	diameter of the inhibition zone (DIZ) (Staphylococcus aureus [1]): inactive
Cc1ccc2occ(C3CC(C4C(=O)N(C)C(=O)N(C)C4=O)=NN3c3ccccc3)c(=O)c2c1 (stereo not given)	–	inactive	–	19	–	inactive	15	inactive	–	–	diameter of the inhibition zone (DIZ) (Staphylococcus aureus [1]): inactive; diameter of the inhibition zone (DIZ) (Escherichia coli [3]): inactive
CN1C(=O)C(C2=NC(=O)NC(c3coc4ccccc4c3=O)C2)C(=O)N(C)C1=O (stereo not given)	8	inactive	15	11	–	inactive	–	inactive	–	–	diameter of the inhibition zone (DIZ) (Candida albicans): inactive
CN1C(=O)C(C(=O)C(Br)C(Br)c2coc3ccccc3c2=O)C(=O)N(C)C1=O (stereo not given)	8	inactive	14	16	–	inactive	15	inactive	–	–	–
CN1C(=O)C(C2=NN(c3nc4ccccc4s3)C(c3coc4ccccc4c3=O)C2)C(=O)N(C)C1=O (stereo not given)	13	inactive	18	9	10	–	14	–	–	14	–
CN1C(=O)C(C2=NNC(c3coc4ccccc4c3=O)C2)C(=O)N(C)C1=O (stereo not given)	16	–	15	12	13	–	14	–	14	8	–
Cc1ccc2occ(/C=C/C(=O)C3C(=O)N(C)C(=O)N(C)C3=O)c(=O)c2c1	12	–	20	12	16	–	12	–	14	12	–
O=C(N[C@H](CO)[C@H](O)c1ccc([N+](=O)[O-])cc1)C(Cl)Cl [CHLORAMPHENICOL]	–	inactive	–	–	–	inactive	–	–	–	–	zone of inhibition at 30 µg/disc (Bacillus subtilis [9]): 24 mm; zone of inhibition at 30 µg/disc (Escherichia coli [10]): 25 mm; diameter of the inhibition zone (DIZ) (Candida albicans): inactive; zone of inhibition at 30 µg/disc (Salmonella typhimurium [11]): 20 mm; zone of inhibition at 30 µg/disc (Staphylococcus aureus [12]): 26 mm
Cc1ccc2occ(C3CC(C4C(=O)N(C)C(=O)N(C)C4=O)=NN3)c(=O)c2c1 (stereo not given)	11	–	12	10	13	inactive	17	–	10	–	–
